Data from patent publication US9310359B2, “Analyte quantification using flow induced dispersion analysis” (FIDA-TECH APS, priority 2010, dated 2016).
Read-outs that look alike come from different tables or passages of the source.

Tests used:
[1] = Diffusion coefficients from FIDA peak variance (eq 2, capillary radius 25 μm); assay type: physicochemical; conditions: 67 mM phosphate buffer pH 7.4, 25° C., calculated using eq 2, capillary radius 25 μm; for Diffusion coefficient of the complex DAL: complex with βCD
Source text: According to Taylor-Aris theory the temporal peak variance is related to ligand (affinity probe) diffusivity (13,14). Under optimal conditions for a pressure driven flow in a cylindrical capillary the peak variance is inversely proportional to the diffusion coefficient, D, according to (15): [formula] where Rc is the radius of the capillary tube, and tR is the peak appearance time. In the presence of the analyte βCD, the observed variance can be attributed to α-naphthol and the complex between α-naphthol and βCD. We shall assume that the observed variance is a weighted average depending on the fraction of free α-naphthol, x. This assumption is valid when the complexation kinetics is fast compared to the timescale of the experiment (16). […] The experimental points are found to be well described by the model and the estimated binding constants are in good agreement with literature data considering that other methods and different conditions were used (table 1). In table 1, the diffusion coefficients of the analytes and complexes calculated using eq 2 and assuming a capillary radius of 25 μm are also listed. […] Samples were run in triplicate.

[2] = literature data (18, 19); cited from earlier work
[3] = Flow Induced Dispersion Analysis (FIDA) equilibrium binding constant with βCD; conditions: complex with βCD, 67 mM phosphate buffer pH 7.4, 25° C., ±standard deviation
Experimental: The sample volume introduced into the capillary in these experiments corresponds to 9 nL. […] The peak shape may be fitted to a Gaussian peak shape (described in the examples); in this way the temporal peak variance σ^2 can be estimated.
[formula] where σA^2 is the observed variance obtained from a Gaussian fit in the absence of an interacting analyte and σAL^2 is the variance corresponding to the complex AL. […] Corrections due to sample injection and detector variances may be introduced, but as they are small and constant under the present conditions they are neglected.
[formula] where [L] is the concentration of free analyte. […]
In a series of experiments the concentration of βCD in the background electrolyte was varied and the peak variances determined.
βCD, α-naphthol and naproxen was obtained form Sigma-Aldrich. […] The amount of water present in βCD was determined by gravimetric analysis upon drying to constant weight in vacuo at ˜60° C. […]

[4] = ACE; complex with βCD; 67 mM phosphate buffer pH 7.4; ±standard deviation
Experimental: Flow induced dispersion and capillary electrophoresis experiments were carried out using an Agilent ^3DCE instrument (Agilent Technologies, Waldbronn, Germany). Uncoated fused silica capillaries of 48.5 cm total length (50 μm i.d., 360 μm o.d.) and 40.5 cm to the detection window were obtained from Polymicro Technologies (Phoenix, Ariz., USA).
New capillaries were conditioned with 1 M NaOH (45 min), Milli-Q water (30 min) and 67 mM phosphate buffer pH 7.4 (30 min). Before a series of experiments the capillary was refreshed by flushing with 1 M NaOH (10 min) and 67 mM phosphate buffer pH 7.4 (10 min). In FIDA, the capillary was preconditioned by flushing the capillary with 0.1 M NaOH (2 min) and run buffer (2 min). The sample was injected by applying a pressure of 50 mbar for 5 sec. Subsequently a pressure of 50 mbar was applied across the capillary to force the sample through it. Finally the sample was detected by UV absorbance at 230 nm. Samples were run in triplicate. The peak variance was obtained by fitting the UV signal to a Gaussian peak shape. The Gaussian in addition to peak variance and peak appearance time the function incorporates a constant A to account for signal height and a constant y0 to account for a possible detector offset.

[5] = complex with βCD; literature data (17); cited from earlier work

Row | Structure (SMILES) | Diffusion coefficient of the free analyte DA [1] | Diffusion coefficient of the complex DAL [1] | Diffusion coefficient of the free analyte DA [2] | Equilibrium binding constant K [3] | Equilibrium binding constant K [4] | Equilibrium binding constant K [5]
1 | COc1ccc2cc([C@H](C)C(=O)O)ccc2c1 [Naproxen, naproxen] | 5.6 · 10^−6 cm^2 s^−1 | 2.8 · 10^−6 cm^2 s^−1 | 5.8 · 10^−6g cm^2 s^−1 | 1050 (±185) M^−1 | 650 (±28)^f M^−1 | –
2 | Oc1cccc2ccccc12 [α-Naphthol, α-naphthol] | 9.3 · 10^−6 cm^2 s^−1 | 3.3 · 10^−6 cm^2 s^−1 | 9.2 · 10^−6e cm^2 s^−1 | 2400 (±240) M^−1 | – | 1250^d M^−1
